Data set [1] deals with action potential (AP) morphology. The following applies: blebbistatin 10 μM used to immobilize tissue; cited from earlier work.
The next data set deals with human cardiac slices. Kind of data set: Acute vs chronic phenylephrine in cultured human cardiac slices, electrophysiology by optical mapping. The data set is classed as cell-based. Particulars: 3 μM phenylephrine, acute application vs slices cultured 24 hours in drug medium. Here is the method:
Utilizing cultured slices and an adult dosage of phenylephrine, a widely used selective α1-adrenergic receptor agonist, a model to study chronic drug effects in human cardiac slices is developed. Slice electrophysiology was first acutely measured using optical mapping after application of 3 μM phenylephrine.

Molecules are shown by their SMILES.

For `Cc1ccc2c(c1)C(=O)C1(O)CCN(c3ccccc3)C1=N2` (centres unmarked) [blebbistatin], in data set [1], the “effects in action potential (AP) morphology” value is “no significant effects”.
Take `CNC[C@H](O)c1cccc(O)c1` [phenylephrine]: in the data set with human cardiac slices, the “Two electrophysiology parameters, acute vs chronic stimulation modes” value was “substantial difference”.

Source of the values: patent US12344826B2, “Apparatus and methods for in vitro preclinical human trials” (THE GEORGE WASHINGTON UNIVERSITY, A CONGRESSIONALLY …, priority 2017, dated 2025).
